# In patent US20240166755A1, “CHIMERIC ANTIGEN RECEPTORS TARGETING CANCER” (University of Southern California, priority 2016, published 2024):
# Key:
# NF-κB = NF-κB luciferase reporter assay in 293FT cells; assay type: cell-based; settings: upon treatment with AP20187, versus untreated
# Description: NF-κB reporter assay was carried out essentially as described (Chaudhary et al., Oncogene 18:5738-46, 1999). The indicated constructs were transiently transfected in 293FT cells along with a luciferase reporter construct driven by 4 copies of NF-κB binding site and a RSV-LacZ reporter construct. Cells were left untreated or treated with AP20187, which dimerizes the FKBP domains, resulting in activation of K13 signaling. Approximately 24 hr later, cells were lysed and NF-κB-Luc and LacZ activities measured in cell lysates. NF-κB-Luc activity was normalized relative to LacZ activity to control for difference in transfection efficiency. […] Thus, activity of K13 and Tax can be controlled by fusion with FKBP and subsequent administration of AP20187 when they are expressed alone or as part of CAR constructs.
# It would be useful to have novel mutants of K13 with varying levels of NF-κB activity for the purpose of adoptive cellular therapy and other applications. Site-directed mutagenesis was conducted using Quickchange site-directed kit (Stratagene) to generate several point mutants of K13 in which the different amino acids of K13 (SEQ ID NO:2629) were mutated. For example, in the mutant K19A the amino acid Lysine at position 19 is mutated to alanine. […] Approximately 24 hr later, cells were lysed and NF-κB-Luc and LacZ activities measured in cell lysates. […]
# [1] = system: CAR-T cells induced death of RAJI-GLuc cells; test: Effect of drugs on CAR-T cell-induced death of RAJI-GLuc cells (GLuc assay); assay type: cell-based, human; settings: for CAR-T cell-induced death of RAJI-pLenti-GLuc cells / CAR-T cells induced death of RAJI-pLenti-GLuc cells / CAR-T cells induced cell death: CD19Bu12 CAR-T cells; for CAR-T cell-induced death of RAJI-pLenti-GLuc cells: versus media alone; for CAR-T cell induced cell death: FMC63 and CD19MM CAR-T cells, Imatinib 50 nM and 500 nM, Nilotinib 10 nM and 100 nM, Axitinib
# [2] = system: Blinatumomab induced cell death of RAJI-GLuc cells mediated by T cells; test: Blinatumomab-induced, T cell-mediated death of RAJI-GLuc cells and its block by drugs (GLuc assay); assay type: cell-based, human
# Lck = Lck (Homo sapiens, UniProt P06239); settings: Lck versus Fyn; cited from earlier work
# Chain of Lck (P06239 whole entry, species assumed): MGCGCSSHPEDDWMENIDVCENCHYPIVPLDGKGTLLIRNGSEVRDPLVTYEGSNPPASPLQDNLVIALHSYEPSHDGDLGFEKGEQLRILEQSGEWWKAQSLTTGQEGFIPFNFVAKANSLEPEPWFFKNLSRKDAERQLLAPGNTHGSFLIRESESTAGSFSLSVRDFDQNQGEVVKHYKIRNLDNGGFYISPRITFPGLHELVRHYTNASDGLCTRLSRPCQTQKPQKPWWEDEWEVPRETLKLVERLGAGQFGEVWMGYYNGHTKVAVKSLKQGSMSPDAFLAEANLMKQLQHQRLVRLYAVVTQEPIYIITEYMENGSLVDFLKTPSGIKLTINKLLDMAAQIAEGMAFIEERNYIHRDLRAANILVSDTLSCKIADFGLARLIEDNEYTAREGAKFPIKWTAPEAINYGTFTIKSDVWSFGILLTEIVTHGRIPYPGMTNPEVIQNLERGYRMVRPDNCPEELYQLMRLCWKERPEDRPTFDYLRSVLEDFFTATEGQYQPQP
# [3] = system: target cells expressing their respective target antigen; test: Jurkat-NFAT-GFP assay, co-culture with target cells expressing the respective target antigen (Table 28); settings: Jurkat-NFAT-GFP cells expressing the CAR; cell line(s) giving greater % GFP positive cells than parental
# [4] = at the indicated concentrations
molecule,measurement,setting,value
FKBPX2-K13: K13 in fusion with two copies of FKBP dimerization domain,K13- and HTLV2-Tax RS mutant-induced NF-κB-Luc activity,NF-κB,increase
COc1cc(Nc2ncc(F)c(Nc3ccc4c(n3)N(COP(=O)(O)O)C(=O)C(C)(C)O4)n2)cc(OC)c1OC [Fosatamatinib],CAR-T cell-induced death of RAJI-pLenti-GLuc cells,[1],mild to modest inhibition
same,Blinatumomab induced cell death mediated by T cells,[2]; [4],only a minimal effect
COc1cc(-c2nn([C@H]3CC[C@H](N4CCN(C(C)=O)CC4)CC3)c3ncnc(N)c23)ccc1NC(=O)c1cc2ccccc2n1C [A-770041],CAR-T cells induced death of RAJI-pLenti-GLuc cells,[1]; 100 nM and 200 nM,near complete inhibition
same,cell death induced by combination of Blinatumomab with T cells,[2]; 100 nM,partially blocked
same,cell death induced by combination of Blinatumomab with T cells,[2]; 200 nM,complete inhibition
same,selective against Fyn,Lck,300 fold
CD8SP-GD3-KM-641-(vL-vH)-Myc-z-P2A-K13-Flag-T2A-PAC(051016-D04)[SEQ ID NO: 1065],Positive Cell Line on co-culture assay,[3],MEL624
COc1cc(Nc2ncc3c(n2)-c2ccc(Cl)cc2C(c2c(F)cccc2OC)=NC3)ccc1C(=O)O [Alisertib],CAR-T cell-induced death of RAJI-pLenti-GLuc cells,[1],mild to modest inhibition
same,Blinatumomab induced cell death mediated by T cells,[2]; [4],only a minimal effect
CNC(=O)c1ccccc1Sc1ccc2c(/C=C/c3ccccn3)n[nH]c2c1 [Axitinib],CAR-T cell induced cell death,[1],no effect
CN1CCN(CCOc2cc(OC3CCOCC3)c3c(Nc4c(Cl)ccc5c4OCO5)ncnc3c2)CC1 [Saracatinib],CAR-T cells induced death of RAJI-pLenti-GLuc cells,[1]; concentration not given,no significant effect
Cc1ccc(NC(=O)c2ccc(CN3CCN(C)CC3)cc2)cc1Nc1nccc(-c2cccnc2)n1 [Imatinib],CAR-induced cell death,"[1]; CD19MM CAR-T cells, E:T 5:1, 4 h, indicated concentrations",no effect
same,CAR-T cell induced cell death,[1],no effect
Cc1cn(-c2cc(NC(=O)c3ccc(C)c(Nc4nccc(-c5cccnc5)n4)c3)cc(C(F)(F)F)c2)cn1 [Nilotinib],CAR-T cell induced cell death,[1],no effect
CD8SP-CD22-m971-(vL-vH)-Myc-BBz-T2A-PAC(091515-A02)[SEQ ID NO: 1519],Positive Cell Line on co-culture assay,[3],"RAJI, NALM6"
CC(C)c1cc(C(C)C)c(CC(=O)NS(=O)(=O)Oc2c(C(C)C)cccc2C(C)C)c(C(C)C)c1 [Avasimibe],CAR-T cells induced cell death,[1]; 100 nM,no significant effect
same,CAR-T cells induced cell death,[1]; 1 μM,completely blocked
same,Blinatumomab induced cell death mediated by T cells,[2]; 1 μM,blocked
